Measured values as given in PMC11272598, “RG7774 (Vicasinabin), an orally bioavailable cannabinoid receptor 2 (CB2R) agonist, decreases retinal vascular permeability, leukocyte adhesion, and ocular inflammation in animal models” (Frontiers in Pharmacology, 2024).

Columns and labels:
Jurkat cells = experiment: xCELLigence impedance assay in Jurkat cells; format: cell-based, human; settings: co-treatment with RG7774
Method: Background impedance was determined in 96-well RTCA E-plates (Agilent Technologies, Santa Clara, CA, United States) coated with 150 μg/mL fibronectin/H2O (Sigma-Aldrich, St. Louis, MO, United States) and containing 50 μL RPMI 1640 assay medium (Fisher Scientific, Schwerte, Germany) 31870) with 10% fetal calf serum (FCS). Jurkat cells (200,000 cells per well) were seeded in 100 μL of growth medium, allowed to settle for 30 min at RT, and cultured overnight at 37°C and 5% CO2. Dose-response curves were generated by adding increasing concentrations of RG7774 to seeded Jurkat cells and performing impedance measurements (xCelligence RTCA M, Agilent Technologies, Santa Clara, CA, United States) at baseline and 1 h after treatment. Displacement experiments were performed by incubating seeded Jurkat cells with 10 μM SR144528, a CB2R-selective antagonist (Tocris Bioscience, Bristol, United Kingdom) or 10 μM RO6851228 (a CB2R-selective inverse agonist; in-house synthesis) in assay medium overnight at 37°C and 5% CO2. Cells were re-treated with 10 μM SR144528 or […] for 1 h and stimulated with 233 nM RG7774 in assay medium. […] Displacement data are presented as the percentage of the maximal normalized cell index determined after antagonist/inverse agonist treatment relative to the percentage of the normalized cell index at 109 nM RG7774 treatment.

Mouse CB1R = Mouse CB1R (Mus musculus, UniProt P47746); experiment: Mouse cAMP assay in N18TG2 cells; format: cell-based; design: inhibition at 0.1 µM: reference not given here; settings: N18TG2, read-out: Mean ± SEM % inhibition of control, Mouse CB1R (cAMP assay)
Method: The effect of RG7774 on the forskolin-stimulated accumulation of cAMP was determined using the LANCE ULTRAcAMP kit (PerkinElmer Life Sciences, MA, USA), according to the manufacturer’s instructions. Briefly, N18TG2 cells preincubated for 30 min with 1-methyl-3-isobutylxanthine (1 mM) were added to 0.5 µM forskolin preincubated with or without RG7774 for 15 min. Reactions were incubated for 30 min at 37°C and Time-resolved fluorescence was measured using a Victor V Multilabel counter (PerkinElmer Life Sciences). Data were transformed into cAMP concentrations using a standard curve.

Human 12-LOX = biological target: T1, Human 12-LOX (Homo sapiens, UniProt P18054); experiment: Human 12-LOX assay; format: biochemical; settings: positive control 100 µM
T1 construct: human platelet-derived 12-LOX; from tissue; host or cells: human platelets
Method: (§1) The inhibitory effects of different concentrations of RG7774 (0.1-500 µM) on the activities of human recombinant 5-LOX (Cayman Chemical Company #60402), 15-LOX (Cayman Chemical Company #10011263), and human platelet-derived 12-LOX were determined using the Biovision Lipoxygenase Activity Assay Kit (#BVN-K978-100). This kit converts the LOX substrate to an intermediate that reacted with the probe, generating a fluorescent product. The effect of RG7774 (preincubated for 15 min) at 10 µM on LOXs (5-LOX: 0.5 or 1.2 µg; 12-LOX: 20 µg; 15-LOX: 0.23 or 0.3 µg) was ascertained by adding the compounds directly to the incubation medium and the fluorescent signal, recorded at excitation/emission 500/536 nm at 30 sec intervals for 30-40 min, was directly proportional to LOX activity. […] The percentage of human 5-, 12-, and 15-LOX activity (control) was estimated from the amount of oxidized probe in the reaction using a standard curve.

Human 5-LOX = biological target: T2, Human 5-LOX (Homo sapiens, UniProt P09917); experiment: Human 5-LOX assay; format: biochemical; settings: positive control 100 µM
T2 construct: purchased Cayman Chemical Company #60402
Method: as §1

Human MAGL = biological target: T3, Human MAGL (Homo sapiens, UniProt Q99685); experiment: Human MAGL assay (U937 cell extracts); format: biochemical; settings: positive control 100 nM
T3 construct: Mouse brain or human U937 cell extracts (ATCC, Manassas, VI, USA); host or cells: U937 cells, 100,000 g supernatant
Method: The final supernatant was incubated with [^3H]-2-OG (10 µM) (ARC, MO, USA) at 37°C for 30 min as previously described, and reactions were stopped with a 2:1 (v/v) mixture of chloroform/methanol. [^3H]-glycerol release in the aqueous phase was measured by scintillation counting. […] Human supernatant (100 µg) was preincubated for 15 min at RT with 8 different concentrations of RG7774 (0.1-500 µM) in the incubation medium.

Human FAAH = biological target: T4, Human FAAH (Homo sapiens, UniProt O00519); experiment: Human FAAH assay; format: biochemical; settings: positive control 100 nM; read-out: Mean ± SEM % inhibition of control, Human FAAH
T4 construct: purchased Cayman Chemical Company
Method: (§2) Mouse brain was homogenized in 50 mM Tris-HCl (pH 7.4) using a glass potter, centrifuged at 1000 g for 10 min, and the pellet was discarded. The supernatant (50 µg) was incubated with [^14C]-AEA (10 µM) (ARC, MO, USA) at 37°C for 15 min (Tris-HCl, pH 9.0) and reactions were stopped with a 2:1 (v/v) mixture of chloroform/methanol. [^14C]-ethanolamine release in the aqueous phase was measured as previously reported. Mouse supernatants (50 µg) were preincubated with RG7774 (10 µM) for 15 min and added directly to the incubation medium. Purified human FAAH (1.7 µg; Cayman Chemical Company, MI, USA) was incubated with [^14C]-AEA (10 µM) (ARC, MO, USA) at 37°C for 15 min (pH 9.0), as previously described. […] for 15 min with 8 different concentrations of RG7774 (0.1-500 µM) and added directly to the incubation medium (250 µL). Control experiments was carried out in the presence of the FAAH inhibitor, URB-597 (100 nM).

Mouse FAAH = biological target: T5, Mouse FAAH (Mus musculus, UniProt O08914); experiment: Mouse FAAH assay (brain); format: biochemical; settings: positive control 100 nM; read-out: Mean ± SEM % inhibition of control, Mouse FAAH
T5 construct: Mouse brain was homogenized in 50 mM Tris-HCl (pH 7.4); from tissue; host or cells: mouse brain, 1000 g supernatant
Method: as §2

Human DAGL = Human DAGL assay (HaCaT cells); format: biochemical; settings: positive control 10 µM
Method: (§3) Mouse brain or human HaCaT cells (CLS Cell Lines Service, GmbH, Eppelheim, Germany) were homogenized in 50 mM Tris-HCl (pH 7.4) using a glass potter, and homogenates were centrifuged at 4°C sequentially at 800 g (10 min) and 10,000 g (30 min). The final pellet (80–200 µg) was resuspended in 50 mM Tris-HCl (pH 7.4) containing 10 mM CaCl2 and incubated at 37°C for 30 min with sn-1[^14C]-stearoyl-2-arachidonoyl-glycerol (100 µM) (ARC, MO, USA). Reactions were stopped by adding chloroform/methanol (2:1, v/v), and the organic phase was dried and fractionated by thin-layer chromatography on silica gel, as previously reported. Levels of 1[^14C]-stearoyl acid radioactivity were determined by cutting the appropriate band from the gel and analyzing using a β-scintillation counter. Mouse cells were preincubated for 15 min with RG7774 (10 µM) and added to the incubation medium. Human cells were preincubated for 15 min with 8 different concentrations of RG7774 (0.1-500 µM) and added to the incubation medium. Control experiments were carried out in the presence of the selective DAGL inhibitor, D053 (10 µM).

Mouse DAGL = Mouse DAGL assay (brain); format: biochemical; settings: positive control 10 µM
Method: as §3

Human EMT = Human EMT activity (HaCaT cells); format: cell-based; settings: positive control 40 µM
Method: HaCaT cells were seeded (350,000–400,000 cell/well) in triplicate in 12-well plates and incubated for 15 min in PBS at 37°C with [^3H]-N-arachidonoylethanolamine ([^3H]-AEA) (400 nM) (ARC, MO, USA), as previously reported. Experiments were repeated at 4°C in order to subtract passive diffusion from EMT-mediated uptake. RG7774 (10 µM) was preincubated with labeled HaCaT cells for 15 min before adding directly to the incubation medium (PBS). The selective EMT inhibitor, OMDM-1 (40 µM), was used as positive control.

T3 sequence (Q99685 whole entry): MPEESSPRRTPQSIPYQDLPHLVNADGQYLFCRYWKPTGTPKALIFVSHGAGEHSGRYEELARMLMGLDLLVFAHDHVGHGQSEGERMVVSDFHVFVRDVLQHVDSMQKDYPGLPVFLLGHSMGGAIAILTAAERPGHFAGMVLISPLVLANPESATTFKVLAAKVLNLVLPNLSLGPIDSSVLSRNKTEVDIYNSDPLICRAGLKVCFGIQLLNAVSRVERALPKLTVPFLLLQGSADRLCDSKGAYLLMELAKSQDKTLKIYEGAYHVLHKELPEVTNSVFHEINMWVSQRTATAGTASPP
T4 sequence (O00519 whole entry): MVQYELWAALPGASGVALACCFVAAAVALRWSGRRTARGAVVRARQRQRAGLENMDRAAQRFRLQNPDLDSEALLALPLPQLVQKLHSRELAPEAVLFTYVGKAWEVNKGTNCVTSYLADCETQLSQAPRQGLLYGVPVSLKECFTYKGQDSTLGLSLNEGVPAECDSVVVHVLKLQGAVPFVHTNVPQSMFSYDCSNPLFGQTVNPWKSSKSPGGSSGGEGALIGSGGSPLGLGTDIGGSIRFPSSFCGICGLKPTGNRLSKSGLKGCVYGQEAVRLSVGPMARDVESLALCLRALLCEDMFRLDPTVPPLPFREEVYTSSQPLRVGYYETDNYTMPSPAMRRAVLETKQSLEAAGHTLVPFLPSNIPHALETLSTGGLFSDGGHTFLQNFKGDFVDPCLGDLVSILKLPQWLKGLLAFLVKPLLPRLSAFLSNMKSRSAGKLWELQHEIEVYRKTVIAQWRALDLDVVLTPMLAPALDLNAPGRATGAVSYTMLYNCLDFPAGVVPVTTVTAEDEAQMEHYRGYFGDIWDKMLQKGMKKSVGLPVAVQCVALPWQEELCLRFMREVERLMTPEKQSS
T2 sequence (P09917 whole entry): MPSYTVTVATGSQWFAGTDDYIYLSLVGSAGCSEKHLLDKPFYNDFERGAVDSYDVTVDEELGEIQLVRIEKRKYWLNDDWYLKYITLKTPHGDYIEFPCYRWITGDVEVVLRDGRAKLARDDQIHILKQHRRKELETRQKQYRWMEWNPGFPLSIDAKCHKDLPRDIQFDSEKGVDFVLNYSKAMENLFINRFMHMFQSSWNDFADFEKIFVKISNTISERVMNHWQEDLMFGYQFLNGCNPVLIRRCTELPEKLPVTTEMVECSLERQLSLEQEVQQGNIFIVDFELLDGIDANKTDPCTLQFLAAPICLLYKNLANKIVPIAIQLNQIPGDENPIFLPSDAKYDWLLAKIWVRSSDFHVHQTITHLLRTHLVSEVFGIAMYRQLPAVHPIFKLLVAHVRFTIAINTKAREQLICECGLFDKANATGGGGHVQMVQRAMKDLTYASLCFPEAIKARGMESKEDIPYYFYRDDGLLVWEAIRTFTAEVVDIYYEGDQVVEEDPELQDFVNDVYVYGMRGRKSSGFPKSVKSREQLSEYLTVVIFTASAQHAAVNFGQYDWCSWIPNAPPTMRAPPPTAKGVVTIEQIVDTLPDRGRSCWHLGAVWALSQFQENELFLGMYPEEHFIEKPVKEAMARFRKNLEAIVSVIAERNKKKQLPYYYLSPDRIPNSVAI
Mouse CB1R, sequence (P47746 whole entry): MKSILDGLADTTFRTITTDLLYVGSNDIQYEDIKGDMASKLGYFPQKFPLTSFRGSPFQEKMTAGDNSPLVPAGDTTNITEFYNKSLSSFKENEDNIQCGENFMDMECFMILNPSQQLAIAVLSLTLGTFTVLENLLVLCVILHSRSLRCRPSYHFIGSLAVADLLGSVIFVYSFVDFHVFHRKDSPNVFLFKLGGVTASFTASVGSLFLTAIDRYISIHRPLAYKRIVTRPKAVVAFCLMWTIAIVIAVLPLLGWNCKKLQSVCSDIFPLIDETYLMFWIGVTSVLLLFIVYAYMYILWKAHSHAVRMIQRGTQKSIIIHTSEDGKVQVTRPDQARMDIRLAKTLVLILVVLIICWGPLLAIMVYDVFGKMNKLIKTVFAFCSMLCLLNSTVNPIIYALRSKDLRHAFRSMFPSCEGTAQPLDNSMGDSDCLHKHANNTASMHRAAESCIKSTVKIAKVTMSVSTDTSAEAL
T1 sequence (P18054 whole entry): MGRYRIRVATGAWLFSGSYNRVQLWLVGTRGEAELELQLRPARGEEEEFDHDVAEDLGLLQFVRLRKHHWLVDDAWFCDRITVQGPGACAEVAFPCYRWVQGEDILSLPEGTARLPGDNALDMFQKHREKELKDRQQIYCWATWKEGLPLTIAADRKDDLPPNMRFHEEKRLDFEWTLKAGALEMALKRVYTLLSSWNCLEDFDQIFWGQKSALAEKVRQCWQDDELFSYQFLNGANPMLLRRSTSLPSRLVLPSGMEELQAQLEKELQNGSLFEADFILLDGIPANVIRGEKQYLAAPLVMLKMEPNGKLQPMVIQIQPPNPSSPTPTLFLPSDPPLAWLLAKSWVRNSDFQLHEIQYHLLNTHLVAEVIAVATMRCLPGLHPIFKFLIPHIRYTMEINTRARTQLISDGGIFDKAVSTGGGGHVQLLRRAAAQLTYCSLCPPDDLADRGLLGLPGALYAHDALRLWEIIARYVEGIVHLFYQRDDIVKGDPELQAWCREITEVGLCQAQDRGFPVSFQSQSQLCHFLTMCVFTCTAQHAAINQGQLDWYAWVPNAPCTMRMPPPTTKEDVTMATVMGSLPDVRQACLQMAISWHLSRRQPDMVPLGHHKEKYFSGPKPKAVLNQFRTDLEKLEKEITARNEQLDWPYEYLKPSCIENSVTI
T5 sequence (O08914 whole entry): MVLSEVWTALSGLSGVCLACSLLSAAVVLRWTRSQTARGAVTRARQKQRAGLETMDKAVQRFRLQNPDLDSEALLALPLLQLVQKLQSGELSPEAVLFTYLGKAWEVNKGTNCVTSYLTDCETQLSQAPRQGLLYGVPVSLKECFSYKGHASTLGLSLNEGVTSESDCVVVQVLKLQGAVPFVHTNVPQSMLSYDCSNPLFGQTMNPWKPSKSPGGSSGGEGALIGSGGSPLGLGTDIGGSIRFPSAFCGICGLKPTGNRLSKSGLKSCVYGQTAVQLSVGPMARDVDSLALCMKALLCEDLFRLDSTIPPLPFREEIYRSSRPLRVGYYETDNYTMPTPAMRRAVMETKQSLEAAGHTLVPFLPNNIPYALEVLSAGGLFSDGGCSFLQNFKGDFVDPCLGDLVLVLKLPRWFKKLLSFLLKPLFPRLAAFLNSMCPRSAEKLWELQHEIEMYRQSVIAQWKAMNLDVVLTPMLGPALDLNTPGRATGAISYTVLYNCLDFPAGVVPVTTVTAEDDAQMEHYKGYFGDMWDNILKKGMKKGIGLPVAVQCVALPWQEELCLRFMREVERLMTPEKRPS

## SR144528 [reference compound]
Jurkat cells
  inhibition of RG7774-induced increase in maximal normalized cell index: fully inhibited

## CCCCCCC(C)(C)c1ccc([C@@H]2C[C@H](O)CC[C@H]2CCCO)c(O)c1 [CP-55940, reference compound]
Mouse CB1R
  inhibition at 0.1 µM: 91.5 ± 2.6%

## CC(Cc1ccc(O)c(O)c1)C(C)Cc1ccc(O)c(O)c1 (stereo not shown) [NDGA, reference compound]
Human 12-LOX
  Mean ± SEM % inhibition of control, Human 12-LOX: 84.6 ± 0.7%
Human 5-LOX
  Mean ± SEM % inhibition of control, Human 5-LOX: 126.6 ± 2.4%

## O=C(Oc1ccc([N+](=O)[O-])cc1)N1CCC(C(O)(c2ccc3c(c2)OCO3)c2ccc3c(c2)OCO3)CC1 [JZL-184, reference compound]
Human MAGL
  Mean ± SEM % inhibition of control, Human MAGL: 84.3 ± 3.4%

## NC(=O)c1cccc(-c2cccc(OC(=O)NC3CCCCC3)c2)c1 [URB-597, reference compound]
Human FAAH
  inhibition at 0.1 µM: 92.8 ± 6.1%
Mouse FAAH
  inhibition at 0.1 µM: 83.2 ± 4.6%

## CC(C)(C)OC(=O)N1CCN(C(=O)n2cc(-c3ccc(OC(F)(F)F)cc3)nn2)C(c2ccccc2)C1 (stereo not shown) [DO53, reference compound]
Human DAGL
  Mean ± SEM % inhibition of control, Human DAGL: 103.1 ± 13.2%
Mouse DAGL
  Mean ± SEM % inhibition of control, Mouse DAGL: 60.4 ± 4.3%

## CCCCCCCC/C=C\CCCCCCCC(=O)N[C@H](CO)Cc1ccc(O)cc1 [OMDM-1, reference compound]
Human EMT
  Mean ± SEM % inhibition of control, Human EMT: 95.5 ± 0.4%
